Experimental data: patent US9260488B2, “Replacement therapy for dental caries” (Oragenics, Inc., priority 2012, dated 2016)

How the values were obtained:
Experiment in all cases: Minimum inhibitory concentration (CLSI M07-8A, modified)
Assay type in all cases: cell-based
[1] = tested on: Clostridium difficile UK1; conditions: peptide purified to about 90%; THyex medium; 24 hour incubation; anaerobic chamber at 37° C.
Experimental: (§1) Wild-type mutacin 1140, mutacin 1140 with a F1I mutation, mutacin 1140 with a W4A mutation, and mutacin 1140 with a R13D mutation was purified to about 90% purity (measured via HPLC). The minimum inhibitory concentration (MIC) of MU1140 and variants of MU1140 was determined against several bacteria. The MIC is the lowest concentration of MU1140 that will inhibit the visible growth of a microorganism after 24 hour incubation. A lower MIC is an indication of greater inhibitory activity. Preparation of the antimicrobial agent and bacterial inoculum for minimum inhibitory concentrations (MICs) was performed by following the method described in Clinical Laboratory Standard Institute (CLSI) M07-8A with some minor modifications. Streptococcus mutans UA159 was tested overnight in a shaking incubator to maintain uniform dispersion of the bacteria. Clostridium difficile UK1 was tested in an anaerobic chamber at 37° C. The medium used was THyex.

[2] = tested on: Micrococcus luteus ATCC10240; conditions: peptide purified to about 90%; THyex medium; 24 hour incubation
Experimental: as §1

[3] = tested on: Staphylococcus aureus FA1; conditions: peptide purified to about 90%; THyex medium; 24 hour incubation
Experimental: as §1

[4] = tested on: Streptococcus mutans UA159; conditions: peptide purified to about 90%; THyex medium; 24 hour incubation; shaking incubator overnight
Experimental: as §1

[5] = tested on: Streptococcus pneumonia FA1; conditions: peptide purified to about 90%; THyex medium; 24 hour incubation
Experimental: as §1

## Mu1140 Wild-type: wild-type lantibiotic mutacin MU1140 (SEQ ID NO:1) produced by S. mutans strain JH1140 (ATCC 55676)
[1]
  MIC Clostridium difficile UK1: 16
[2]
  MIC Micrococcus luteus ATCC10240: 0.0625
[3]
  MIC Staphylococcus aureus FA1: 16
[4]
  MIC Streptococcus mutans UA159: 2
[5]
  MIC Streptococcus pneumonia FA1: 0.5
